{"source": "patent US9765299B2", "about": "“Chemically defined albumin-free conditions for cardiomyocyte differentiation of human pluripotent stem cells” (Wisconsin Alumni Research Foundation, priority 2014, dated 2017)", "key": {"[1]": {"test_system": "brachyury expression in ES03 hESCs", "assay": "Brachyury expression (mesendoderm induction) by western blot and immunostaining", "format": "cell-based, human", "method": "Cells were fixed with 4% paraformaldehyde for 15 min at room temperature and then stained with primary and secondary antibodies (Table 3) in PBS plus 0.4% Triton X-100 and 5% non-fat dry milk (Bio-Rad). Nuclei were stained with Gold Anti-fade Reagent with DAPI (Invitrogen). An epifluorescence microscope (Leica DM IRB) with a QImaging® Retiga 4000R camera was used for imaging analysis. Cells were lysed in M-PER Mammalian Protein Extraction Reagent (Pierce) in the presence of Halt Protease and Phosphatase Inhibitor Cocktail (Pierce). Proteins were separated by 10% Tris-Glycine SDS/PAGE (Invitrogen) under denaturing conditions and transferred to a nitrocellulose membrane. After blocking with 5% dried milk in TBST, the membrane was incubated with primary antibody overnight at 4° C. The membrane was then washed, incubated with an anti-mouse/rabbit peroxidase-conjugated secondary antibody (Table 3) at room temperature for 1 hour, and developed by SuperSignal chemiluminescence (Pierce)."}, "hPSCs": {"test_system": "hPSCs", "assay": "Cell death of hPSCs on Gsk3 inhibitor treatment in albumin-free medium", "format": "cell-based, human", "method": "hPSCs maintained on a Synthemax-coated surface in E8 or mTeSR1 medium were dissociated into single cells with Accutase® (Life Technologies) at 37° C. for 5 min and then seeded onto a Synthemax-coated cell culture dish at 100,000-200,000 cell/cm^2 in E8 supplemented with 5 μM ROCK inhibitor Y-27632 (Selleckchem)(day −2) for 24 hours. Cells were then cultured in E8, changed daily. […] At day 0 the cell density should be between 250,000 and 400,000 cells/cm^2. At day 3, half the medium was changed to fresh RPMI medium containing 2.5 μM IWP2 (Tocris). At day 5, the entire medium was changed with RPMI medium. Cells were maintained in the cardiomyocyte maintenance medium (CMM: RPMI supplemented with 10 μg/ml insulin (sigma) and 200 μg/ml L-Ascorbic acid 2-phosphate sesquimagnesium salt hydrate (sigma)) starting from day 7, with the medium changed every 2 days."}}, "data": [{"smiles": "Cc1c[nH]c(-c2cnc(NCCNc3ccc(C#N)cn3)nc2-c2ccc(Cl)cc2Cl)n1", "note": "[CH]", "values": [{"measurement": "brachyury expression", "setting": "[1]; 6 μM CH, albumin-free RPMI, after 24 hr", "result": "induced robust brachyury expression"}, {"measurement": "brachyury expression", "setting": "[1]; 30 μM CH, medium containing 1% HRA", "result": "induced brachyury expression"}, {"measurement": "brachyury expression", "setting": "[1]; CH concentrations up to 6 μM, presence of 1% human recombinant albumin (HRA)", "result": "unable to induce brachyury expression"}, {"measurement": "cell death", "setting": "hPSCs; 12 μM at day 0, by 24 hr, absence of BSA", "result": "prolific cell death"}, {"measurement": "cell death", "setting": "hPSCs; same concentration of CH as Burridge et al., 2 days, albumin-free medium", "result": "substantial cell death"}]}]}
